Source: the supplement of paper PMC11451515

Test system: P12-Ichikawa
Test: cell viability relative to DMSO control; higher = less cytotoxic
Settings: 48 h
Method in brief: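 Library compounds in DMSO were pin-dosed in an 11-point threefold series (47 μM to 0.79 nM) onto leukemia cells in 1536-well plates (5 μl). Plates held 500 cells/well of NOMO1 or SEM or 1000 cells/well of P12-Ichikawa, each adapted for at least four passages in each medium. Luminescence was read with CellTiter-Glo One after 48 h at 37°C. Viability means the per-plate percentage relative to DMSO wells, using cell-free wells as background.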

[1] = HPLM + 10% dialyzed FBS, 0.000781 µM
[2] = HPLM + 10% dialyzed FBS, 0.00234 µM
[3] = HPLM + 10% dialyzed FBS, 0.00702 µM
[4] = HPLM + 10% dialyzed FBS, 0.0211 µM
[5] = HPLM + 10% dialyzed FBS, 0.0632 µM
[6] = HPLM + 10% dialyzed FBS, 0.19 µM
[7] = HPLM + 10% dialyzed FBS, 0.569 µM
[8] = HPLM + 10% dialyzed FBS, 1.71 µM
[9] = HPLM + 10% dialyzed FBS, 5.12 µM
[10] = HPLM + 10% dialyzed FBS, 15.4 µM
[11] = HPLM + 10% dialyzed FBS, 46.1 µM
[12] = RPMI 5 mM glucose + 10% FBS, 0.000781 µM
[13] = RPMI 5 mM glucose + 10% FBS, 0.00234 µM
[14] = RPMI 5 mM glucose + 10% FBS, 0.00702 µM
[15] = RPMI 5 mM glucose + 10% FBS, 0.0211 µM
[16] = RPMI 5 mM glucose + 10% FBS, 0.0632 µM
[17] = RPMI 5 mM glucose + 10% FBS, 0.19 µM
[18] = RPMI 5 mM glucose + 10% FBS, 0.569 µM
[19] = RPMI 5 mM glucose + 10% FBS, 1.71 µM
[20] = RPMI 5 mM glucose + 10% FBS, 5.12 µM
[21] = RPMI 5 mM glucose + 10% FBS, 15.4 µM
[22] = RPMI 5 mM glucose + 10% FBS, 46.1 µM
[23] = RPMI 5 mM glucose + 10% dialyzed FBS, 0.000781 µM
[24] = RPMI 5 mM glucose + 10% dialyzed FBS, 0.00234 µM
[25] = RPMI 5 mM glucose + 10% dialyzed FBS, 0.00702 µM
[26] = RPMI 5 mM glucose + 10% dialyzed FBS, 0.0211 µM
[27] = RPMI 5 mM glucose + 10% dialyzed FBS, 0.0632 µM
[28] = RPMI 5 mM glucose + 10% dialyzed FBS, 0.19 µM
[29] = RPMI 5 mM glucose + 10% dialyzed FBS, 0.569 µM
[30] = RPMI 5 mM glucose + 10% dialyzed FBS, 1.71 µM
[31] = RPMI 5 mM glucose + 10% dialyzed FBS, 5.12 µM
[32] = RPMI 5 mM glucose + 10% dialyzed FBS, 15.4 µM
[33] = RPMI 5 mM glucose + 10% dialyzed FBS, 46.1 µM

| Structure (SMILES) | cell viability [1] | cell viability [2] | cell viability [3] | cell viability [4] | cell viability [5] | cell viability [6] | cell viability [7] | cell viability [8] | cell viability [9] | cell viability [10] | cell viability [11] | cell viability [12] | cell viability [13] | cell viability [14] | cell viability [15] | cell viability [16] | cell viability [17] | cell viability [18] | cell viability [19] | cell viability [20] | cell viability [21] | cell viability [22] | cell viability [23] | cell viability [24] | cell viability [25] | cell viability [26] | cell viability [27] | cell viability [28] | cell viability [29] | cell viability [30] | cell viability [31] | cell viability [32] | cell viability [33] |
| --- | --- | --- | --- | --- | --- | --- | --- | --- | --- | --- | --- | --- | --- | --- | --- | --- | --- | --- | --- | --- | --- | --- | --- | --- | --- | --- | --- | --- | --- | --- | --- | --- | --- |
| CC(C)n1cnc2c(NCCc3ccc(O)cc3)nc(-c3csc4ccccc34)nc21 | 105% | 111% | 109% | 114% | 119% | 115% | 107% | 117% | 24.9% | 6.01% | 2.93% | 106% | 108% | 116% | 107% | 116% | 112% | 116% | 129% | 125% | 53.5% | 3.44% | 98.3% | 109% | 112% | 112% | 119% | 114% | 118% | 119% | 130% | 38.6% | 2.43% |
| CO[C@@H]1[C@@H](O)[C@H](O)[C@@H](n2c3c(Cl)cccc3c3c4c(c5c6cccc(Cl)c6[nH]c5c32)C(=O)NC4=O)O[C@H]1CO | 109% | 100% | 108% | 106% | 100% | 81.9% | 14.3% | 5.78% | 7.57% | 4.61% | 3.32% | 101% | 104% | 103% | 103% | 94.9% | 71% | 8.36% | 6.11% | 4.86% | 3.72% | 3.9% | 97.7% | 91.4% | 96.1% | 94.7% | 85.7% | 68.4% | 14% | 7.72% | 8.77% | 6.63% | 4.8% |
| O=[S+]([O-])(NCCNC/C=C/c1ccc(Br)cc1)c1cccc2cnccc12 | 108% | 110% | 102% | 105% | 107% | 107% | 106% | 100% | 97% | 95.3% | 95.8% | 99.1% | 108% | 96.4% | 89% | 97.6% | 108% | 102% | 99.2% | 96.6% | 81.5% | 72% | 95.9% | 95.6% | 103% | 96.2% | 99.6% | 101% | 102% | 103% | 95.8% | 77% | 77.8% |
| CN(C)CCc1c[nH]c2ccc(C[S+](=O)([O-])N3CCCC3)cc12 | 104% | 105% | 110% | 114% | 114% | 113% | 114% | 111% | 107% | 110% | 84.4% | 106% | 110% | 110% | 116% | 109% | 115% | 118% | 111% | 111% | 99.8% | 87.5% | 97.1% | 101% | 108% | 106% | 113% | 107% | 117% | 113% | 104% | 96% | 84.2% |
| N#Cc1ccc(NC(=O)Nc2ccccc2Br)c2nn[nH]c12 | 101% | 109% | 109% | 115% | 119% | 123% | 122% | 116% | 125% | 126% | 79.1% | 101% | 109% | 112% | 120% | 118% | 134% | 122% | 117% | 128% | 127% | 122% | 103% | 110% | 111% | 108% | 117% | 112% | 123% | 109% | 121% | 125% | 95.7% |
| CC(C)(C)C1=CC(=C(NC(=O)C/2=C/NC3=C(C=CC=C3)C2=O)C=C1O)C(C)(C)C | 123% | 113% | 124% | 120% | 121% | 124% | 120% | 118% | 118% | 114% | 112% | 124% | 139% | 124% | 133% | 119% | 124% | 131% | 115% | 117% | 116% | 112% | – | – | – | – | – | – | – | – | – | – | – |
